Test results as given in PMC9541094 (Chemistry (Weinheim an der Bergstrasse, Germany), 2022).

System: tumor spheroids of MDA-MB-231 cells and murine bone marrow derived macrophages
Assay: 3D co-culture spheroid viability, alamar blue assay
Type: cell-based, human; murine
Conditions: doxorubicin 1.25 μM alone

## COc1cccc2c1C(=O)c1c(O)c3c(c(O)c1C2=O)C[C@@](O)(C(=O)CO)C[C@@H]3O[C@H]1C[C@H](N)[C@H](O)[C@H](C)O1 [doxorubicin]
  3D spheroid viability versus vehicle control: ~100%
